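Grown in 96-well plates, cells were treated for 48 hours with each compound at five concentrations. Insufficient inhibition: endpoint recorded as highest concentration tested. GI50 is the concentration that inhibits growth by half. The concentration for full growth arrest is given as TGI.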
test system: PC-3 prostate; experiment: NCI anticancer screen, dose series, 48 h

| Structure (SMILES) | TGI |
| --- | --- |
| CCOC(=O)C1=NN(c2ccc(C)cc2)C2=CC(C)=NN(C)C(=S)N21 | > 100 µM |
| O=C(c1cccs1)N(C(=S)OC12CC3CC(CC(C3)C1)C2)c1ccccc1 | 88.5 µM |
| C(=N\NC1=NCCN1)/c1ccc(-c2cn3cc(/C=N/NC4=NCCN4)ccc3n2)cc1 | > 59.4 µM |
| CC1CC[C@@]2(OC1)OC1C[C@H]3[C@@H]4CC=C5CC(OC6OC(CO)C(OC7OC(CO)C(O)C(OC8OCC(O)C(O)C8O)C7OC7OC(CO)C(O)C(O)C7O)C(O)C6O)CCC5(C)[C@H]4CCC3(C)C1[C@@H]2C (stereo partly specified) | 7.45 µM |
| Cc1c(N2C(=O)CS(=O)(=O)C2c2cccc(Oc3ccccc3)c2)c(=O)n(-c2ccccc2)n1C (stereo unspecified) | > 100 µM |
| CCC1CN(C(=O)c2ccccc2)C(Cc2c[nH]c3ccccc23)C(=O)C1CC(=O)OC (stereo unspecified) | > 100 µM |
| CC12CC3OC(=O)C1COC14OC5(C2C1=O)C(O)(CCC1C4CC(O)C2(O)CC=CC(=O)C12C)C(=O)OC35C (stereo unspecified) | > 100 µM |
| NC(=O)c1c(NC(=O)c2ccccn2)sc2c1CCC(=O)C2 | > 100 µM |
| CCOC(=O)C(NC(=O)c1ccco1)(Nc1nc2ccc(OCC)cc2s1)C(F)(F)F (stereo unspecified) | 93 µM |
| CCC(C)C1=C(OC(C)=O)[N+]2([O-])Oc3ccc(-c4c(OC(C)=O)c(OC(C)=O)c(-c5ccc(OC(C)=O)cc5)c(OC(C)=O)c4OC(C)=O)cc3OC2(C(C)CC)C(=O)N1OC(C)=O (stereo unspecified) | > 50 µM |
| O=C(O)C1C2CCC(O2)C1C(=O)Nc1cccc2cccnc12 (stereo unspecified) | > 100 µM |
| COc1cccc2c1Cc1cc(-c3ccccc3)[n+](C)n1-2 | 89.7 µM |
| O=C(C[n+]1ccc2ccccc2c1)c1ccc2ccc3ccccc3c2c1 | 15.3 µM |
| NCCCCc1cc(O)c2c(c1O)C(=O)c1ccccc1C2=O | 22.8 µM |
| Cc1ccccc1C(=O)N/N=C/c1ccc(Sc2nccn2C)c([N+](=O)[O-])c1 | > 100 µM |
| CCn1c(-c2ccc(N=NNc3ccc(-c4n[nH]c(=S)n4CC)cc3)cc2)n[nH]c1=S | 8.34 µM |
| CC(=O)C1=C(C)N(c2ccc(C)cc2)C2(O)C=CC(=O)C3C(=O)N(c4ccccc4)C(=O)C132 (stereo unspecified) | 62.3 µM |
| COc1ccc2c(c1)[nH]c1c(/C=C/c3ccccc3)nccc12 | 38.9 µM |
| Clc1cc2c(cc1Cl)CC(NCCN1CCCC1)CC2 (stereo unspecified) | 30.3 µM |
| CCN(CC(=O)O)C(=O)c1cccnc1 | > 100 µM |
| NCCSC(c1ccccc1)c1ccccc1 | 55.6 µM |
| CCCCCCCCC/C=C/C=C/C(=O)NCC(=O)NC1C(O)C(O)C(Nc2ncnc3nc[nH]c23)OC1C(O)CO (stereo unspecified) | 0.00787 µM |
| COc1nc(C#CC2(O)CCCCC2)nc(OC)n1 | 18.5 µM |
| C[C@H](CCC(=O)O)[C@H]1CC[C@@]2(C)[C@@H]3C(=O)C[C@H]4C(C)(C)[C@@H](O)CC[C@]4(C)[C@H]3C(=O)C[C@]12C | > 100 µM |

test system: CCRF-CEM leukemia; experiment: NCI anticancer screen, dose series, 48 h

| Structure (SMILES) | TGI | GI50 |
| --- | --- | --- |
| CCOC(=O)C1=NN(c2ccc(C)cc2)C2=CC(C)=NN(C)C(=S)N21 | > 100 µM | – |
| O=C(c1cccs1)N(C(=S)OC12CC3CC(CC(C3)C1)C2)c1ccccc1 | 52.1 µM | – |
| C(=N\NC1=NCCN1)/c1ccc(-c2cn3cc(/C=N/NC4=NCCN4)ccc3n2)cc1 | 25.1 µM | – |
| CC1CC[C@@]2(OC1)OC1C[C@H]3[C@@H]4CC=C5CC(OC6OC(CO)C(OC7OC(CO)C(O)C(OC8OCC(O)C(O)C8O)C7OC7OC(CO)C(O)C(O)C7O)C(O)C6O)CCC5(C)[C@H]4CCC3(C)C1[C@@H]2C (stereo partly specified) | 12.1 µM | – |
| Nc1ccccc1S(=O)(=O)c1ccccc1 | > 100 µM | – |
| Cc1c(N2C(=O)CS(=O)(=O)C2c2cccc(Oc3ccccc3)c2)c(=O)n(-c2ccccc2)n1C (stereo unspecified) | > 100 µM | – |
| COc1cc2c(ccc3c4cc(OC)c(OC)cc4c[n+](C)c23)cc1O | 34.6 µM | – |
| CNC(=O)OCc1c(CO)nc(SC)n1C | > 100 µM | – |
| CN(C)CC(CC1=C(CC(CN(C)C)N(C)C)CCC1)N(C)C (stereo unspecified) | > 100 µM | – |
| CCC1CN(C(=O)c2ccccc2)C(Cc2c[nH]c3ccccc23)C(=O)C1CC(=O)OC (stereo unspecified) | > 100 µM | – |
| CC12CC3OC(=O)C1COC14OC5(C2C1=O)C(O)(CCC1C4CC(O)C2(O)CC=CC(=O)C12C)C(=O)OC35C (stereo unspecified) | > 100 µM | – |
| NC(=O)c1c(NC(=O)c2ccccn2)sc2c1CCC(=O)C2 | > 100 µM | 2.02 µM |
| COc1ccc(C(=O)/C=C/c2cccc([N+](=O)[O-])c2)c(OC)c1 | 4.79 µM | 1.39 µM |
| CCOC(=O)C(NC(=O)c1ccco1)(Nc1nc2ccc(OCC)cc2s1)C(F)(F)F (stereo unspecified) | > 100 µM | – |
| CCC(C)C1=C(OC(C)=O)[N+]2([O-])Oc3ccc(-c4c(OC(C)=O)c(OC(C)=O)c(-c5ccc(OC(C)=O)cc5)c(OC(C)=O)c4OC(C)=O)cc3OC2(C(C)CC)C(=O)N1OC(C)=O (stereo unspecified) | 39.3 µM | – |
| COc1cccc2c1Cc1cc(-c3ccccc3)[n+](C)n1-2 | 9.69 µM | – |
| O=C(OCN1C(=O)C2C3C=CC(C2C1=O)C1C2C(=O)N(COC(=O)C4CCCN4)C(=O)C2C31)C1CCCN1 (stereo unspecified) | 53.5 µM | – |
| O=C(C[n+]1ccc2ccccc2c1)c1ccc2ccc3ccccc3c2c1 | 4.78 µM | – |
| NCCCCc1cc(O)c2c(c1O)C(=O)c1ccccc1C2=O | 14.4 µM | – |
| Cc1ccccc1C(=O)N/N=C/c1ccc(Sc2nccn2C)c([N+](=O)[O-])c1 | > 100 µM | – |
| CCn1c(-c2ccc(N=NNc3ccc(-c4n[nH]c(=S)n4CC)cc3)cc2)n[nH]c1=S | 61.6 µM | – |
| CC(=O)C1=C(C)N(c2ccc(C)cc2)C2(O)C=CC(=O)C3C(=O)N(c4ccccc4)C(=O)C132 (stereo unspecified) | > 100 µM | – |
| COc1ccc2c(c1)[nH]c1c(/C=C/c3ccccc3)nccc12 | > 100 µM | – |
| Clc1cc2c(cc1Cl)CC(NCCN1CCCC1)CC2 (stereo unspecified) | > 100 µM | – |
| [N-]=[N+]=CC(=O)c1ccccc1C#CCCc1ccccc1 | 62.1 µM | – |
| NCCSC(c1ccccc1)c1ccccc1 | > 100 µM | – |
| COc1nc(C#CC2(O)CCCCC2)nc(OC)n1 | 48.6 µM | – |
| C[C@H](CCC(=O)O)[C@H]1CC[C@@]2(C)[C@@H]3C(=O)C[C@H]4C(C)(C)[C@@H](O)CC[C@]4(C)[C@H]3C(=O)C[C@]12C | > 100 µM | – |

test system: MALME-3M melanoma; experiment: NCI anticancer screen, dose series, 48 h

| Structure (SMILES) | TGI | GI50 |
| --- | --- | --- |
| O=C(c1cccs1)N(C(=S)OC12CC3CC(CC(C3)C1)C2)c1ccccc1 | > 100 µM | – |
| C(=N\NC1=NCCN1)/c1ccc(-c2cn3cc(/C=N/NC4=NCCN4)ccc3n2)cc1 | > 100 µM | – |
| CC1CC[C@@]2(OC1)OC1C[C@H]3[C@@H]4CC=C5CC(OC6OC(CO)C(OC7OC(CO)C(O)C(OC8OCC(O)C(O)C8O)C7OC7OC(CO)C(O)C(O)C7O)C(O)C6O)CCC5(C)[C@H]4CCC3(C)C1[C@@H]2C (stereo partly specified) | > 25 µM | – |
| Nc1ccccc1S(=O)(=O)c1ccccc1 | > 100 µM | – |
| Cc1c(N2C(=O)CS(=O)(=O)C2c2cccc(Oc3ccccc3)c2)c(=O)n(-c2ccccc2)n1C (stereo unspecified) | 60 µM | – |
| COc1cc2c(ccc3c4cc(OC)c(OC)cc4c[n+](C)c23)cc1O | 66.4 µM | – |
| CNC(=O)OCc1c(CO)nc(SC)n1C | > 100 µM | – |
| CN(C)CC(CC1=C(CC(CN(C)C)N(C)C)CCC1)N(C)C (stereo unspecified) | > 100 µM | – |
| CCC1CN(C(=O)c2ccccc2)C(Cc2c[nH]c3ccccc23)C(=O)C1CC(=O)OC (stereo unspecified) | > 100 µM | – |
| CC12CC3OC(=O)C1COC14OC5(C2C1=O)C(O)(CCC1C4CC(O)C2(O)CC=CC(=O)C12C)C(=O)OC35C (stereo unspecified) | > 100 µM | – |
| COc1ccc(C(=O)/C=C/c2cccc([N+](=O)[O-])c2)c(OC)c1 | > 50 µM | 3.56 µM |
| CCOC(=O)C(NC(=O)c1ccco1)(Nc1nc2ccc(OCC)cc2s1)C(F)(F)F (stereo unspecified) | > 100 µM | – |
| CCC(C)C1=C(OC(C)=O)[N+]2([O-])Oc3ccc(-c4c(OC(C)=O)c(OC(C)=O)c(-c5ccc(OC(C)=O)cc5)c(OC(C)=O)c4OC(C)=O)cc3OC2(C(C)CC)C(=O)N1OC(C)=O (stereo unspecified) | > 50 µM | – |
| O=C(O)C1C2CCC(O2)C1C(=O)Nc1cccc2cccnc12 (stereo unspecified) | > 100 µM | – |
| COc1cccc2c1Cc1cc(-c3ccccc3)[n+](C)n1-2 | 25.6 µM | – |
| O=C(OCN1C(=O)C2C3C=CC(C2C1=O)C1C2C(=O)N(COC(=O)C4CCCN4)C(=O)C2C31)C1CCCN1 (stereo unspecified) | > 100 µM | – |
| O=C(C[n+]1ccc2ccccc2c1)c1ccc2ccc3ccccc3c2c1 | 22.2 µM | – |
| NCCCCc1cc(O)c2c(c1O)C(=O)c1ccccc1C2=O | 30 µM | – |
| Cc1ccccc1C(=O)N/N=C/c1ccc(Sc2nccn2C)c([N+](=O)[O-])c1 | > 100 µM | – |
| CCn1c(-c2ccc(N=NNc3ccc(-c4n[nH]c(=S)n4CC)cc3)cc2)n[nH]c1=S | 7.75 µM | – |
| CC(=O)C1=C(C)N(c2ccc(C)cc2)C2(O)C=CC(=O)C3C(=O)N(c4ccccc4)C(=O)C132 (stereo unspecified) | 46.6 µM | – |

From PubChem BioAssay (NCI)
